Measurements as given in patent US12180198B2, “Ribocil C antibiotics effective for Gram-negative pathogens” (THE BOARD OF TRUSTEES OF THE UNIVERSITY OF ILLINOIS, priority 2018, dated 2024).
Structures can show the parent of a compound that is named as a salt. Where two headings read alike, the source gives them in different places.

What was measured:
[1] = test system: E. coli BAA-2469; test: Bioactivity against exemplary strains of bacteria (Table 5A); format: cell-based; design: unit not given here; details: Strain 2: E. coli BAA-2469
[2] = test system: K. pneumoniae BAA-2146; test: as above; format: cell-based; details: Strain 4: K. pneumoniae BAA-2146
[3] = test system: A. baumannii BAA-2093; test: as above; format: cell-based; details: Strain 3: A. baumannii BAA-2093
[4] = test system: E. coli BAA-2469; test: MIC, micro-dilution broth method; format: cell-based; details: Escherichia coli, BAA2469; E. coli BAA-2469; read-out: MIC
Method: (§1) Compounds were evaluated against a panel of Gram-positive and Gram-negative organisms. MIC values were determined using the micro-dilution broth method as outlined by the Clinical and Laboratory Standards Institute (clsi.org/) and are listed in […]. All experiments were performed in biological triplicate.
(§2) Antimicrobial susceptibility tests. Susceptibility testing was performed in biological triplicate, using the micro-dilution broth method as outlined by the Clinical and Laboratory Standards Institute. Bacteria were cultured with cation-adjusted Muller-Hinton broth (Sigma-Aldrich, Cat #90922) in round-bottom 96-well plates (Corning, Cat #3788). Human serum (pooled gender, 0.2 μm filtered) was purchased from BioIVT (Hicksville, NY).

[5] = test system: K. pneumoniae M14723; test: MIC, micro-dilution broth method; format: cell-based; details: Klebsiella pneumoniae; K. pneumoniae M14723; read-out: MIC
Method: as §1, §2

[6] = test system: E. coli ΔtolC JW5503; test: MIC, micro-dilution broth method; format: cell-based; details: Escherichia coli
Method: as §1, §2

[7] = test system: K. pneumoniae AR-0347; test: MIC, micro-dilution broth method; format: cell-based; details: Klebsiella pneumoniae, AR0347; K. pneumoniae AR-0347; read-out: MIC
Method: as §1, §2

[8] = test system: A. baumannii M13100; test: MIC, micro-dilution broth method; format: cell-based; details: Acinetobacter baumannii; A. baumannii M13100; read-out: MIC
Method: as §1, §2

[9] = test system: E. coli ΔrfaC JW3596; test: MIC, micro-dilution broth method; format: cell-based; details: Escherichia coli
Method: as §1, §2

[10] = test system: E. coli BAA-2471; test: MIC, micro-dilution broth method; format: cell-based; details: Escherichia coli, BAA2471; E. coli BAA-2471; read-out: MIC
Method: as §1, §2

[11] = test system: K. pneumoniae S20595; test: MIC, micro-dilution broth method; format: cell-based; details: Klebsiella pneumoniae; K. pneumoniae S20595; read-out: MIC
Method: as §1, §2

[12] = test system: A. baumannii W41979; test: MIC, micro-dilution broth method; format: cell-based; details: Acinetobacter baumannii; A. baumannii W41979; read-out: MIC
Method: as §1, §2

[13] = test system: K. pneumoniae M67198; test: MIC, micro-dilution broth method; format: cell-based; details: Klebsiella pneumoniae; K. pneumoniae M67198; read-out: MIC
Method: as §1, §2

[14] = test system: A. baumannii F19521; test: MIC, micro-dilution broth method; format: cell-based; details: Acinetobacter baumannii; A. baumannii F19521; read-out: MIC
Method: as §1, §2

[15] = test system: S. aureus ATCC 29213; test: MIC, micro-dilution broth method; format: cell-based; details: Staphylococcus aureus, ATCC29213, S. aureus ATCC 29213
Method: as §1, §2

[16] = test system: E. coli AR-0349; test: MIC, micro-dilution broth method; format: cell-based; details: Escherichia coli, AR0349; E. coli AR-0349; read-out: MIC
Method: as §1, §2

[17] = test system: E. coli AR-0493; test: MIC, micro-dilution broth method; format: cell-based; details: Escherichia coli, AR0493; E. coli AR-0493; read-out: MIC
Method: as §1, §2

[18] = test system: A. baumannii KB343; test: MIC, micro-dilution broth method; format: cell-based; details: Acinetobacter baumannii; A. baumannii KB343; read-out: MIC
Method: as §1, §2

[19] = test system: K. pneumoniae BAA-2342; test: MIC, micro-dilution broth method; format: cell-based; details: Klebsiella pneumoniae, BAA2342; K. pneumoniae BAA-2342; read-out: MIC
Method: as §1, §2

[20] = test system: E. cloacae BAA-2468; test: MIC, micro-dilution broth method; format: cell-based; details: Enterobacter cloacae, BAA2468; E. cloacae BAA-2468; read-out: MIC
Method: as §1, §2

[21] = test system: K. pneumoniae M67297; test: MIC, micro-dilution broth method; format: cell-based; details: Klebsiella pneumoniae; K. pneumoniae M67297; read-out: MIC
Method: as §1, §2

[22] = test system: K. pneumoniae S47889; test: MIC, micro-dilution broth method; format: cell-based; details: Klebsiella pneumoniae; K. pneumoniae S47889; read-out: MIC
Method: as §1, §2

[23] = test system: K. pneumoniae BAA-2472; test: MIC, micro-dilution broth method; format: cell-based; details: Klebsiella pneumoniae, BAA2472; K. pneumoniae BAA-2472; read-out: MIC
Method: as §1, §2

[24] = test system: A. baumannii KB304; test: MIC, micro-dilution broth method; format: cell-based; details: Acinetobacter baumannii; A. baumannii KB304; read-out: MIC
Method: as §1, §2

[25] = test system: A. baumannii KB357; test: MIC, micro-dilution broth method; format: cell-based; details: Acinetobacter baumannii; A. baumannii KB357; read-out: MIC
Method: as §1, §2

[26] = test system: E. coli AR-0495; test: MIC, micro-dilution broth method; format: cell-based; details: Escherichia coli, AR0495; E. coli AR-0495; read-out: MIC
Method: as §1, §2

[27] = test system: E. coli AR-0346; test: MIC, micro-dilution broth method; format: cell-based; details: Escherichia coli, AR0346; E. coli AR-0346; read-out: MIC
Method: as §1, §2

[28] = test system: A. baumannii WO22; test: MIC, micro-dilution broth method; format: cell-based; details: Acinetobacter baumannii; A. baumannii WO22; read-out: MIC
Method: as §1, §2

[29] = test system: E. coli MG1655; test: MIC, micro-dilution broth method; format: cell-based; details: Escherichia coli
Method: as §1, §2

[30] = test system: K. pneumoniae BAA-1705; test: MIC, micro-dilution broth method; format: cell-based; details: Klebsiella pneumoniae, BAA1705; K. pneumoniae BAA-1705; read-out: MIC
Method: as §1, §2

[31] = test system: K. pneumoniae BAA-2470; test: MIC, micro-dilution broth method; format: cell-based; details: Klebsiella pneumoniae, BAA2470; K. pneumoniae BAA-2470; read-out: MIC
Method: as §1, §2

[32] = test system: E. cloacae S28901.1; test: MIC, micro-dilution broth method; format: cell-based; details: Enterobacter cloacae; E. cloacae S28901.1; read-out: MIC
Method: as §1, §2

[33] = test system: K. pneumoniae BAA-2473; test: MIC, micro-dilution broth method; format: cell-based; details: Klebsiella pneumoniae, BAA2473; K. pneumoniae BAA-2473; read-out: MIC
Method: as §1, §2

[34] = test system: E. cloacae BAA-2341; test: MIC, micro-dilution broth method; format: cell-based; details: Enterobacter cloacae, BAA2341; E. cloacae BAA-2341; read-out: MIC
Method: as §1, §2

[35] = test system: E. coli strains with intact outer membranes; test: MIC, micro-dilution broth method (text summary); format: cell-based; details: E. coli strains with intact outer membranes
Method: FIG. 2. Antimicrobial activity of Debio-1452 and derivatives. MIC values were determined using the micro-dilution broth method as outlined by the Clinical and Laboratory Standards Institute (clsi.org/). All experiments were performed in biological triplicate.
as §2

[36] = test system: H. sapiens IMR-90; test: Cell viability, Alamar Blue; format: cell-based; details: Homo sapiens, IMR-90, read-out: % inhibition at 30 μM
Method: Cell culture. IMR90 cells were obtained from ATCC. IMR90 cells were grown in EMEM with 10% fetal bovine serum (Gemini Benchmark, Cat #100-106), 100 U/mL penicillin, and 100 μg/mL streptomycin. All cells were cultured at 37° C. in a 5% CO2 environment. Media was prepared by the University of Illinois School of Chemical Sciences Cell Media Facility. Sex and age of cell lines: IMR90 ([…]).
Cell viability. Cells seeded (IMR90: 5,000 cells/well) a 96-well plate (Greiner Bio-One, Cat #655180) and were allowed to attach overnight. Cells were treated with investigational compounds in DMSO (30 μM, 1% DMSO final, 100 μL/well). Raptinal (100 μM) was used as a dead control. After 24 h post-treatment, media was exchanged with compound-free media. After 72 h post-treatment, cell viability was assessed using the Alamar Blue method. Stock Alamar Blue solution [10 μL, 440 μM resazurin (Sigma-Aldrich, Cat #R7017) in sterile 1×PBS] was added to each well, and plate was incubated […]. Conversion of Alamar Blue was measured with plate reader (SpectraMax M3, Molecular Devices) by fluorescence (ex 555 nm, em 585 nm, cutoff 570 nm, autogain). Percent death was determined by normalizing to DMSO-treated cells and raptinal-treated cells.

[37] = Mouse MTD; details: mice, IP injection, single dose, monitored 2 weeks
Method: The protocol was approved by the IACUC at the University of Illinois at Urbana-Champaign (Protocol Number: 16144). In these studies, 10- to 12-week-old female C57BL/6 mice purchased from Charles River were used. The maximum tolerate dose (MTD) of a single compound was determined first. […] For multiple doses, the compound was given by daily IP for 5 consecutive days and mice were monitored for signs of toxicity for 1 month. MTD was the highest dosage with acceptable toxicity (e.g., <20% weight loss). Single dose MTDs were initially determined.

NCCNc1nc(/C=C/c2ccc(Cl)cc2)nc2cc3ccccc3cc12 [Z7, (E)-N^1-(2-(4-chlorostyryl)benzo[g]quinazolin-4-yl)ethane-1,2-diamine]
Bioactivity [1]: 4
Bioactivity [2]: >32
Bioactivity [3]: 2

Cc1ccc2nc(/C=C/c3ccc(Cl)cc3)nc(NCCN)c2c1 [Z14, (E)-N^1-(2-(4-chlorostyryl)-6-methylquinazolin-4-yl)ethane-1,2-diamine]
Bioactivity [1]: 8
Bioactivity [2]: 64
Bioactivity [3]: 8

NCc1cnc(-n2cnc(CN3CCCC(c4nc(O)cc(-c5cccs5)n4)C3)c2)nc1 (stereo not drawn) [R13a]
Bioactivity [1]: 16
Bioactivity [2]: 64
Bioactivity [3]: >128

CCN(CC)CCNc1nc(/C=C/c2ccc(Cl)cc2)nc2cc3ccccc3cc12 [Z3, Zantrin Z3, reference compound]
Bioactivity [1]: >64
Bioactivity [2]: >64
Bioactivity [3]: 32

Cc1c(CN(C)C(=O)/C=C/c2cnc3c(c2)CC(CN)C(=O)N3)oc2ccccc12.Cl (stereo not drawn) [compound 2, (E)-3-(6-(aminomethyl)-7-oxo-5,6,7,8-tetrahydro-1,8-naphthyridin-3-yl)-N-methyl-N-((3-methylbenzofuran-2-yl)methyl)acrylamide hydrochloride]
MIC [4]: 2 µg/mL
MIC [5]: 16 µg/mL
MIC [6]: 0.125 µg/mL
MIC [7]: 8 µg/mL
MIC [8]: 16 µg/mL
MIC [9]: 0.5 µg/mL
MIC [10]: 4 µg/mL
MIC [11]: 16 µg/mL
MIC [12]: 16 µg/mL
MIC [13]: 32 µg/mL
MIC [14]: 16 µg/mL
MIC ([15]; read-out: MIC): 0.03 µg/mL
MIC [16]: 2 µg/mL
MIC [17]: 4 µg/mL
MIC [18]: > 64 µg/mL
MIC [19]: 16 µg/mL
MIC [20]: 8 µg/mL
MIC [21]: 32 µg/mL
MIC [22]: 8 µg/mL
MIC [23]: 16 µg/mL
MIC [24]: 64 µg/mL
MIC [25]: > 64 µg/mL
MIC [26]: 2 µg/mL
MIC [27]: 4 µg/mL
MIC [28]: > 64 µg/mL
MIC ([29]; E. coli MG1655, read-out: MIC): 8 µg/mL
MIC [30]: 16 µg/mL
MIC [31]: 4 µg/mL
MIC [32]: 8 µg/mL
MIC [33]: 16 µg/mL
MIC [34]: 16 µg/mL
antibacterial activity (in words) [35]: active

Cc1c(CN(C)C(=O)/C=C/c2cnc3c(c2)CC(CCN)C(=O)N3)oc2ccccc12 (stereo not drawn) [compound 3, (E)-3-(6-(aminoethyl)-7-oxo-5,6,7,8-tetrahydro-1,8-naphthyridin-3-yl)-N-methyl-N-((3-methylbenzofuran-2-yl)methyl)acrylamide hydrochloride]
MIC [6]: 0.062 µg/mL
MIC [9]: 0.5 µg/mL
MIC [15]: 0.125 µg/mL
MIC ([29]; MG1655): 8 µg/mL
antibacterial activity (in words) [35]: active
inhibition at 30 µM [36]: 12%
single dose well tolerated [37]: 100 mg/kg
